Where two headings read alike, the source gives them in different places.
Experiments:
[1] = test system: NMDA receptors (N-methyl-D-aspartate receptors); details: opening of the ion channel induced by glutamate
[2] = very low application dosage
[3] = Pharmacological effect and tolerability of glycine on administration; details: in vivo

SMILES: NCC(=O)O [Glycine]
- effect on the excitatory NMDA receptors [1]: shows an effect as a co-transmitter
- uptake into the central nervous system ([2]; application via the mucous membranes, avoiding the first-pass effect): very fast uptake
- uptake into the central nervous system [2]: very quick uptake
- negative effects with other applications of drugs [3]: No negative effects
- time until the preparation acts [3]: 5 to 10 min
- undesired side-effects [3]: have not been proven
- undesired side-effects ([3]; listed as glycine): No undesired side-effects have been established
